# Measurements as given in PubChem BioAssay (NCI).
#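 Protocol summary: plate cells (96-well), add compound at 5 concentrations, incubate 48 h, interpolate endpoints linearly. TGI: concentration producing complete growth inhibition.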
# Legend:
# Assay in all cases: growth of human tumour cells (NCI), 48 h
# OVCAR-5 ovarian = system: OVCAR-5 ovarian
# OVCAR-3 ovarian = system: OVCAR-3 ovarian
# MDA-MB-231 breast = system: MDA-MB-231 breast
# SW-620 colon = system: SW-620 colon
# SNB-19 CNS = system: SNB-19 CNS
# IGROV1 ovarian = system: IGROV1 ovarian
# HOP-62 NSCLC = system: HOP-62 NSCLC
# MDA-N = system: MDA-N
# UACC-257 melanoma = system: UACC-257 melanoma
# DU-145 prostate = system: DU-145 prostate
# SR leukemia = system: SR leukemia
# A549 NSCLC = system: A549 NSCLC
# OVCAR-4 ovarian = system: OVCAR-4 ovarian
# SF-295 CNS = system: SF-295 CNS
# HT29 colon = system: HT29 colon
# ACHN renal = system: ACHN renal
# MOLT-4 leukemia = system: MOLT-4 leukemia
# SK-MEL-5 melanoma = system: SK-MEL-5 melanoma
# 786-0 renal = system: 786-0 renal
# SNB-75 CNS = system: SNB-75 CNS
# MCF7 breast = system: MCF7 breast
# NCI-H226 lung = system: NCI-H226 lung
# K-562 leukemia = system: K-562 leukemia
# NCI-H23 lung = system: NCI-H23 lung
# U251 CNS = system: U251 CNS
# TK-10 renal = system: TK-10 renal
# SK-MEL-2 melanoma = system: SK-MEL-2 melanoma
# HS 578T breast = system: HS 578T breast
# A498 renal = system: A498 renal
# NCI-H460 lung = system: NCI-H460 lung
# OVCAR-8 ovarian = system: OVCAR-8 ovarian
# SK-OV-3 ovarian = system: SK-OV-3 ovarian
# RXF 393 renal = system: RXF 393 renal
# NCI-H522 lung = system: NCI-H522 lung
# PC-3 prostate = system: PC-3 prostate
# COLO 205 colon = system: COLO 205 colon
# MALME-3M melanoma = system: MALME-3M melanoma
# SF-539 CNS = system: SF-539 CNS
# KM12 colon = system: KM12 colon
# HOP-92 NSCLC = system: HOP-92 NSCLC
# SK-MEL-28 melanoma = system: SK-MEL-28 melanoma
# BT-549 breast = system: BT-549 breast
# CAKI-1 renal = system: CAKI-1 renal
# M14 melanoma = system: M14 melanoma
# MDA-MB-435 = system: MDA-MB-435
# RPMI-8226 leukemia = system: RPMI-8226 leukemia
# LOX IMVI melanoma = system: LOX IMVI melanoma
# SN12C renal = system: SN12C renal
# UACC-62 melanoma = system: UACC-62 melanoma
# EKVX NSCLC = system: EKVX NSCLC
# T-47D breast = system: T-47D breast
# NCI/ADR-RES ovarian = system: NCI/ADR-RES ovarian
# SF-268 CNS = system: SF-268 CNS
# HCT-116 colon = system: HCT-116 colon
# HCT-15 colon = system: HCT-15 colon
# UO-31 renal = system: UO-31 renal
# HCC-2998 colon = system: HCC-2998 colon
structure (smiles),measurement,setting,value
Cc1ccc(NC(=O)c2ccccc2C(=O)O)cc1C,TGI,OVCAR-5 ovarian,> 100 µM
same,TGI,OVCAR-3 ovarian,> 100 µM
same,TGI,MDA-MB-231 breast,> 100 µM
same,TGI,SW-620 colon,> 100 µM
same,TGI,SNB-19 CNS,> 100 µM
same,TGI,IGROV1 ovarian,> 100 µM
same,TGI,HOP-62 NSCLC,> 100 µM
same,TGI,MDA-N,> 100 µM
same,TGI,UACC-257 melanoma,> 100 µM
same,TGI,DU-145 prostate,> 100 µM
same,TGI,SR leukemia,> 100 µM
same,TGI,A549 NSCLC,> 100 µM
same,TGI,OVCAR-4 ovarian,> 100 µM
same,TGI,SF-295 CNS,> 100 µM
same,TGI,HT29 colon,> 100 µM
same,TGI,ACHN renal,> 100 µM
same,TGI,MOLT-4 leukemia,> 100 µM
same,TGI,SK-MEL-5 melanoma,> 100 µM
same,TGI,786-0 renal,> 100 µM
same,TGI,SNB-75 CNS,> 100 µM
same,TGI,MCF7 breast,> 100 µM
same,TGI,NCI-H226 lung,> 100 µM
same,TGI,K-562 leukemia,> 100 µM
same,TGI,NCI-H23 lung,> 100 µM
same,TGI,U251 CNS,> 100 µM
same,TGI,TK-10 renal,> 100 µM
same,TGI,SK-MEL-2 melanoma,> 100 µM
same,TGI,HS 578T breast,> 100 µM
same,TGI,A498 renal,> 100 µM
same,TGI,NCI-H460 lung,> 100 µM
same,TGI,OVCAR-8 ovarian,> 100 µM
same,TGI,SK-OV-3 ovarian,> 100 µM
same,TGI,RXF 393 renal,> 100 µM
same,TGI,NCI-H522 lung,> 100 µM
same,TGI,PC-3 prostate,> 100 µM
same,TGI,COLO 205 colon,> 100 µM
same,TGI,MALME-3M melanoma,> 100 µM
same,TGI,SF-539 CNS,> 100 µM
same,TGI,KM12 colon,> 100 µM
same,TGI,HOP-92 NSCLC,> 100 µM
same,TGI,SK-MEL-28 melanoma,> 100 µM
same,TGI,BT-549 breast,> 100 µM
same,TGI,CAKI-1 renal,> 100 µM
same,TGI,M14 melanoma,> 100 µM
same,TGI,MDA-MB-435,> 100 µM
same,TGI,RPMI-8226 leukemia,> 100 µM
same,TGI,LOX IMVI melanoma,> 100 µM
same,TGI,SN12C renal,> 100 µM
same,TGI,UACC-62 melanoma,> 100 µM
same,TGI,EKVX NSCLC,> 100 µM
same,TGI,T-47D breast,> 100 µM
same,TGI,NCI/ADR-RES ovarian,> 100 µM
same,TGI,SF-268 CNS,> 100 µM
same,TGI,HCT-116 colon,> 100 µM
same,TGI,HCT-15 colon,> 100 µM
CC(C)(C)OC(=O)NCCC1CN(C(=O)c2ccccc2)c2ccccc21 (stereo not drawn),TGI,OVCAR-5 ovarian,> 100 µM
same,TGI,OVCAR-3 ovarian,65.3 µM
same,TGI,MDA-MB-231 breast,> 100 µM
same,TGI,SW-620 colon,> 100 µM
same,TGI,SNB-19 CNS,> 100 µM
same,TGI,IGROV1 ovarian,> 100 µM
same,TGI,HOP-62 NSCLC,83.2 µM
same,TGI,MDA-N,48.4 µM
same,TGI,UACC-257 melanoma,75.2 µM
same,TGI,DU-145 prostate,> 100 µM
same,TGI,SR leukemia,> 100 µM
same,TGI,A549 NSCLC,> 100 µM
same,TGI,UO-31 renal,76.1 µM
same,TGI,OVCAR-4 ovarian,> 100 µM
same,TGI,SF-295 CNS,> 100 µM
same,TGI,HT29 colon,63.7 µM
same,TGI,HCC-2998 colon,> 100 µM
same,TGI,ACHN renal,> 100 µM
same,TGI,MOLT-4 leukemia,74.4 µM
same,TGI,SK-MEL-5 melanoma,32 µM
same,TGI,786-0 renal,> 100 µM
same,TGI,SNB-75 CNS,75.2 µM
same,TGI,MCF7 breast,85.5 µM
same,TGI,K-562 leukemia,> 100 µM
same,TGI,NCI-H23 lung,88.8 µM
same,TGI,U251 CNS,> 100 µM
same,TGI,TK-10 renal,> 100 µM
same,TGI,SK-MEL-2 melanoma,91.2 µM
same,TGI,HS 578T breast,> 100 µM
same,TGI,A498 renal,> 100 µM
same,TGI,NCI-H460 lung,56.3 µM
same,TGI,OVCAR-8 ovarian,67.8 µM
same,TGI,SK-OV-3 ovarian,> 100 µM
same,TGI,RXF 393 renal,99 µM
same,TGI,NCI-H522 lung,64.2 µM
same,TGI,PC-3 prostate,> 100 µM
same,TGI,COLO 205 colon,40 µM
same,TGI,MALME-3M melanoma,80.9 µM
same,TGI,KM12 colon,> 100 µM
same,TGI,HOP-92 NSCLC,94.6 µM
same,TGI,SK-MEL-28 melanoma,91.2 µM
same,TGI,BT-549 breast,66.5 µM
same,TGI,CAKI-1 renal,> 100 µM
same,TGI,M14 melanoma,33.6 µM
same,TGI,MDA-MB-435,84.7 µM
same,TGI,RPMI-8226 leukemia,54.4 µM
same,TGI,UACC-62 melanoma,42.3 µM
same,TGI,EKVX NSCLC,> 100 µM
same,TGI,T-47D breast,95.5 µM
same,TGI,NCI/ADR-RES ovarian,57.5 µM
same,TGI,SF-268 CNS,> 100 µM
same,TGI,HCT-116 colon,43 µM
same,TGI,HCT-15 colon,> 100 µM
